Laboratory results: publication PMC9176691, “Design, synthesis and biological evaluation of novel diosgenin–benzoic acid mustard hybrids with potential anti-proliferative activities in human hepatoma HepG2 cells” (Journal of Enzyme Inhibition and Medicinal Chemistry, 2022)

Key:
[1] = tested on: GES-1 cells; experiment: MTT cytotoxicity assay, normal GES-1; type: cell-based, human; conditions: for IC50: Homo sapiens, GES1, 48 h, read-out: IC50 GES-1
[2] = tested on: HepG2 cells; experiment: MTT anti-proliferative assay, HepG2; type: cell-based, human; conditions: Homo sapiens, HepG2, 48 h, read-out: IC50 HepG2
[3] = tested on: HeLa cells; experiment: MTT anti-proliferative assay, HeLa; type: cell-based; conditions: Homo sapiens, 48 h, read-out: IC50 HeLa
[4] = tested on: MCF-7 cells; experiment: MTT anti-proliferative assay, MCF-7; type: cell-based, human; conditions: Homo sapiens, MCF7, 48 h, read-out: IC50 MCF-7

In the case of C[C@H](CC[C@H]1OC2C[C@H]3[C@@H]4CC=C5C[C@@H](O)CC[C@]5(C)C4CC[C@]3(C)C2[C@@H]1C)COC(=O)c1ccc(N(CCCl)CCCl)cc1 (stereo partly drawn) [Compound 8, (22 R,25R)-3β-hydroxy-5-en-furostan-26–4-(bis(2-chloroethyl)amino)benzoate], the IC50 [1] is reported as greater than 100 µM, the IC50 [2] is reported as greater than 50 µM and the IC50 [3] is reported as greater than 50 µM. It also gave an IC50 [4] greater than 50 µM.

With C[C@H](CC[C@H]1OC2C[C@H]3[C@@H]4CC=C5C[C@@H](OC(=O)c6ccc(N(CCCl)CCCl)cc6)CC[C@]5(C)C4CC[C@]3(C)C2[C@@H]1C)COC(=O)c1ccc(N(CCCl)CCCl)cc1 (stereo partly drawn) [Compound 9, (22 R,25R)-3β-((4-(bis(2-chloroethyl)amino)benzoyl)oxy)-5-en-furostan-26–4-(bis(2-chloroethyl)amino) benzoate] the IC50 [1] was greater than 100 µM, the IC50 [2] was greater than 50 µM and the IC50 [3] was greater than 50 µM. It also gave an IC50 [4] greater than 50 µM.

CC(=O)O[C@H]1CC[C@@]2(C)C(=CC[C@@H]3C2CC[C@]2(C)C4C(C[C@@H]32)O[C@H](CC[C@@H](C)COC(=O)c2ccc(N(CCCl)CCCl)cc2)[C@H]4C)C1 (stereo partly drawn) [Compound 10, (22 R,25R)-3β-acetoxy-5-en-furostan-26–4-(bis(2-chloroethyl)amino)benzoate] showed an IC50 [1] greater than 100 µM, an IC50 [2] greater than 50 µM and an IC50 [3] greater than 50 µM. The IC50 [4] was 28.1 ± 1.52 µM.

Work on CC(=O)OC1CCC2(C)C(=CCC3C2CCC2(C)C3CC3OC(CCC(C)C(=O)NCCNC(=O)c4ccc(N(CCCl)CCCl)cc4)C(C)C32)C1 [Compound 14a, (22 R,25R)-(2-aminoethyl-4-(bis(2-chloroethyl)amino)benzamido)-3β-acetoxy-5-en-furostan-26-amide] yielded an IC50 [1] greater than 100 µM, an IC50 [2] of 10.2 ± 1.01 µM and an IC50 [3] of 17.2 ± 2.81 µM. It also gave an IC50 [4] of 48.3 ± 2.21 µM.

With CC(=O)OC1CCC2(C)C(=CCC3C2CCC2(C)C3CC3OC(CCC(C)C(=O)NCCCNC(=O)c4ccc(N(CCCl)CCCl)cc4)C(C)C32)C1 [Compound 14b, (22 R,25R)-(3-aminopropyl-4-(bis(2-chloroethyl)amino)benzamido)-3β-acetoxy-5-en-furostan-26-amide] the SI [1] was 1.86, the IC50 [1] was 47 ± 2.34 µM and the IC50 [2] was 25.3 ± 1.4 µM. The IC50 [3] was greater than 100 µM and the IC50 [4] was 30.3 ± 2.08 µM.

CC(=O)OC1CCC2(C)C(=CCC3C2CCC2(C)C3CC3OC(CCC(C)C(=O)N4CCN(C(=O)c5ccc(N(CCCl)CCCl)cc5)CC4)C(C)C32)C1 [Compound 14e, (22 R,25R)-(1-piperazinyl-4-(bis(2-chloroethyl)amino)benzamido)-3β-acetoxy-5-en-furostan-26-amide] showed an SI [1] of 3.05, an IC50 [1] of 58.8 ± 1.34 µM and an IC50 [2] of 19.3 ± 1.29 µM. It also gave an IC50 [3] greater than 50 µM and an IC50 [4] of 42.7 ± 2.25 µM.

Work on CC(CCC1OC2CC3C4CC=C5CC(O)CCC5(C)C4CCC3(C)C2C1C)C(=O)NCCNC(=O)c1ccc(N(CCCl)CCCl)cc1 [Compound 15a, (22 R,25R)-(2-aminoethyl-4-(bis(2-chloroethyl)amino)benzamido)-3β-hydroxy-5-en-furostan-26-amide] yielded an SI [1] of 6.28, an IC50 [1] of 83.2 ± 3.12 µM and an IC50 [2] of 13.2 ± 1.01 µM. For the same molecule, the IC50 [3] was greater than 50 µM and the IC50 [4] was greater than 100 µM.

With CC(CCC1OC2CC3C4CC=C5CC(O)CCC5(C)C4CCC3(C)C2C1C)C(=O)NCCCNC(=O)c1ccc(N(CCCl)CCCl)cc1 [Compound 15b, (22 R,25R)-(3-aminopropyl-4-(bis(2-chloroethyl)amino)benzamido)-3β-hydroxy-5-en-furostan-26-amide] the SI [1] was greater than 7.14, the IC50 [1] was greater than 100 µM and the IC50 [2] was 14 ± 1.15 µM. For the same molecule, the IC50 [3] was 49.8 ± 2.13 µM and the IC50 [4] was 37.2 ± 2.23 µM.

Molecule CC(CCC1OC2CC3C4CC=C5CC(O)CCC5(C)C4CCC3(C)C2C1C)C(=O)N1CCN(C(=O)c2ccc(N(CCCl)CCCl)cc2)CC1 [Compound 15e, (22 R,25R)-(1-piperazinyl-4-(bis(2-chloroethyl)amino)benzamido)-3β-hydroxy-5-en-furostan-26-amide] has an IC50 [1] greater than 100 µM, an IC50 [2] of 14 ± 1.12 µM and an IC50 [3] of 28.5 ± 2.13 µM. The IC50 [4] was greater than 50 µM.
